Among the data in patent publication US20240246968A1, “SMALL MOLECULE INHIBITORS OF KRAS G12C MUTANT” (Merck Sharp & Dohme LLC, priority 2021, published 2024) are binding rate and IC50 values, retold here.

The target in test [1] is Gppcp-bound recombinant K-Ras4B G12C mutant protein (amino acids 1-169, C51S/C80L/C118S) (Homo sapiens, UniProt P01116, C118S/C51S/C80L/G12C). Nature of the test: KRASG12C binding assay (LC-MS, compound binding rate). The settings on record: test compound final concentration 0.5 μM, 25° C., 1 hour. The procedure, abridged: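 Covalent adduct formation measured by deconvoluted intact-mass LC-MS after 1 h at 25 °C with compound at 0.5 μM final and 50 nM Gppcp-loaded KRAS G12C (residues 1-169, C51S/C80L/C118S). Buffer: TBS, 0.1 mM TCEP, 0.25 mM MgCl2, 50 μM Gppcp. Binding % = one-molecule adduct/(unbound + all adducts), binned A ≥80, B 60–80, C 40–60, D 20–40, E <20.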

Test [2] deals with T1, interaction between recombinant K-Ras4B G12C mutant protein and cRAF RAS-binding domain (cRAF-RBD) (Homo sapiens, UniProt P01116, G12C).
T1 construct: made in house; host or cells: E. coli
As to the kind of experiment: Inhibitory activity on interaction between KRAS G12C and cRAF (Alpha technology). Format: biochemical. The settings on record: GMPPNP-bound KRAS G12C incubated with compound at 25° C. for 1 hour, then cRAF-RBD; Alpha signal. In outline: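 Alpha readout of cRAF-RBD (aa 50-132) binding to KRAS G12C (aa 1-169) after 1.5 h RT, following 1 h, 25° C compound preincubation with GMPPNP-bound protein (pH 7.5 Tris, 1 mM MgCl2, TCEP, Tween 20). IC50 fitted from titrations, with GDP-bound KRAS as 100% and DMSO as 0% inhibition.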

Test [3] concerns MIA PaCa-2 cells. As to the kind of experiment: Growth inhibition activity on KRAS-G12C mutant cell line (MIA PaCa-2), CellTiter-Glo 3D. It counts as cell-based, human. The settings on record: MIA PaCa-2, 3-day culture with compound. In outline:
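Luminescence readout (CellTiter-Glo 3D) after 3 days of compound treatment at 37 °C, 5% CO2, 0.2% final DMSO, gave % growth inhibition versus no-compound wells, from which IC50 (nM) was derived; cells had been plated in 10% FBS RPMI1640 one day before dosing.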
Background: Cellular ATP, detected with luciferase, serves as a proxy for viable cell number.

For `CC(C)(C)NC/C=C/C(=O)Nc1c(F)cc(C(=O)c2cnc3c(-c4cc5nc6n(c5cc4C(F)(F)F)CCC6)cccn23)cc1F` [Example 7, (E)-4-(tert-butylamino)-N-(2,6-difluoro-4-(8-(7-(trifluoromethyl)-2,3-dihydro-1H-benzo[d]pyrrolo[1,2-a]imidazol-6-yl)imidazo[1,2-a]pyridine-3-carbonyl)phenyl)but-2-enamide], in test [1], the binding rate result is “B (a binding rate of 60% or more and less than 80% is rated “B”)”. Moreover, the IC50 (in general, the point on the concentration scale where inhibition reaches its midpoint) in test [2] amounted to 69 nM; in test [3] (Homo sapiens, MIA PaCa-2, 72 h), 160 nM.
For the compound `Cc1nc2c(-c3cc4nc(C)n(C)c4cc3C(F)(F)F)cccn2c1C(=O)c1cc(F)c(NC(=O)/C=C/CNC(C)(C)C)c(F)c1` [Example 52, (E)-4-(tert-butylamino)-N-(4-(8-(1,2-dimethyl-6-(trifluoromethyl)-1H-benzo[d]imidazol-5-yl)-2-methylimidazo[1,2-a]pyridine-3-carbonyl)-2,6-difluorophenyl)but-2-enamide], in test [1], the binding rate result is reported as “A (A binding rate of 80% or more is rated “A”)”. Further, the IC50 in test [2] worked out at 75 nM; in test [3] (Homo sapiens, MIA PaCa-2, 72 h), 190 nM.
In the case of `Cc1cc2c(nc(C)n2C)c(Cl)c1-c1cccn2c(C(=O)c3cc(F)c(NC(=O)/C=C/CNC(C)(C)C)c(F)c3)ccc12` (single isomer, unassigned) [Example 18-1, (E)-4-(tert-butylamino)-N-(4-(8-(4-chloro-1,2,6-trimethyl-1H-benzo[d]imidazol-5-yl)indolizine-3-carbonyl)-2,6-difluorophenyl)but-2-enamide], the binding rate result in test [1] is on record as “A (A binding rate of 80% or more is rated “A”)”. The 50% inhibitory concentration (IC50) in test [2] and in test [3] was 29 nM each time.
For the compound `COc1cc2c(cc1-c1cccn3c(C(=O)c4cc(F)c(NC(=O)/C=C/CN[C@H]5CC[C@H](OC)CC5)c(F)c4)ccc13)nc(C)n2C` [Example 4, (E)-N-(2,6-difluoro-4-(8-(6-methoxy-1,2-dimethyl-1H-benzo[d]imidazol-5-yl)indolizine-3-carbonyl)phenyl)-4-(((1r,4r)-4-methoxycyclohexyl)amino)but-2-enamide], the binding rate entry in test [1] is “A (A binding rate of 80% or more is rated “A”)”. Moreover, the 50% inhibitory concentration (IC50) in test [2] was determined as 74 nM; in test [3] (Homo sapiens, MIA PaCa-2, 72 h) it was 42 nM.
Take `CO[C@H]1CC[C@H](NC/C=C/C(=O)Nc2c(F)cc(C(=O)c3ccc4c(-c5c(C(C)C)cc6c(nc(C)n6C)c5Cl)cccn34)cc2F)CC1` (single isomer, unassigned) [Example 71-1, (E)-N-(4-(8-(4-chloro-6-isopropyl-1,2-dimethyl-1H-benzo[d]imidazol-5-yl)indolizine-3-carbonyl)-2,6-difluorophenyl)-4-(((1r,4r)-4-methoxycyclohexyl)amino)but-2-enamide]: the binding rate result in test [1] is listed as “A (A binding rate of 80% or more is rated “A”)”. In addition, the IC50 is 43 nM in test [2] and 130 nM in test [3].
For the compound `Cc1nc2cc(-c3cccn4c(C(=O)c5cc(F)c(NC(=O)/C=C/CNC(C)(C)CF)c(F)c5)ccc34)c(C(F)(F)F)cc2n1C` [Example 76, (E)-N-(4-(8-(1,2-dimethyl-6-(trifluoromethyl)-1H-benzo[d]imidazol-5-yl)indolizine-3-carbonyl)-2,6-difluorophenyl)-4-((1-fluoro-2-methylpropan-2-yl)amino)but-2-enamide], the binding rate result in test [1] is on record as “A (A binding rate of 80% or more is rated “A”)”. The IC50 came to 75 nM in test [2] and 300 nM in test [3] (Homo sapiens, MIA PaCa-2, 72 h).
Take `CO[C@H]1CC[C@H](NC/C=C/C(=O)Nc2c(F)cc(C(=O)c3ccc4c(-c5c(C(F)(F)F)cc6c(ncn6C)c5Cl)cccn34)cc2F)CC1` (single isomer, unassigned) [Example 28-1, (E)-N-(4-(8-(4-chloro-1-methyl-6-(trifluoromethyl)-1H-benzo[d]imidazol-5-yl)indolizine-3-carbonyl)-2,6-difluorophenyl)-4-(((1r,4r)-4-methoxycyclohexyl)amino)but-2-enamide]: in test [1], the binding rate entry is reported as “A (A binding rate of 80% or more is rated “A”)”. Further, the results for the half-inhibitory concentration (IC50) in test [2] and in test [3] were 31 nM and 51 nM, respectively.
Turning to `CO[C@H]1CC[C@H](NC/C=C/C(=O)Nc2c(F)cc(C(=O)c3ccc4c(-c5c(C#N)cc6c(nc(C)n6C)c5Cl)cccn34)cc2F)CC1` [Example 37, (E)-N-(4-(8-(4-chloro-6-cyano-1,2-dimethyl-1H-benzo[d]imidazol-5-yl)indolizine-3-carbonyl)-2,6-difluorophenyl)-4-(((1r,4r)-4-methoxycyclohexyl)amino)but-2-enamide], the binding rate entry in test [1] is reported as “A (A binding rate of 80% or more is rated “A”)”. The IC50 was 87 nM in test [2] and 240 nM in test [3] (Homo sapiens, MIA PaCa-2, 72 h).
With `CCc1cc2c(nc(C)n2C)c(Cl)c1-c1cccn2c(C(=O)c3cc(F)c(NC(=O)/C=C/CN[C@H]4CC[C@H](OC)CC4)c(F)c3)ccc12` (single isomer, unassigned) [Example 22-2, (E)-N-(4-(8-(4-chloro-6-ethyl-1,2-dimethyl-1H-benzo[d]imidazol-5-yl)indolizine-3-carbonyl)-2,6-difluorophenyl)-4-(((1r,4r)-4-methoxycyclohexyl)amino)but-2-enamide], the binding rate result in test [1] is reported as “A (A binding rate of 80% or more is rated “A”)”. Also, the values for the half-inhibitory concentration (IC50) in test [2] and in test [3] were 110 nM and 410 nM, respectively.
Consider `COc1cc2c(nc(C)n2C)c(F)c1-c1cccn2c(C(=O)c3cc(F)c(NC(=O)/C=C/CNC(C)(C)C)c(F)c3)ccc12` [Example 46, (E)-4-(tert-butylamino)-N-(2,6-difluoro-4-(8-(4-fluoro-6-methoxy-1,2-dimethyl-1H-benzo[d]imidazol-5-yl)indolizine-3-carbonyl)phenyl)but-2-enamide], for which, in test [1], the binding rate entry is recorded as “A (A binding rate of 80% or more is rated “A”)”. Moreover, the half-maximal inhibitory concentration (IC50) in test [2] came to 30 nM; in test [3] (Homo sapiens, MIA PaCa-2, 72 h) it was 24 nM.
`CO[C@H]1CC[C@H](NC/C=C/C(=O)Nc2c(F)cc(C(=O)c3ccc4c(-c5c(C)cc6c(ncn6C)c5C)cccn34)cc2F)CC1` (single isomer, unassigned) [Example 34-1, (E)-N-(2,6-difluoro-4-(8-(1,4,6-trimethyl-1H-benzo[d]imidazol-5-yl)indolizine-3-carbonyl)phenyl)-4-(((1r,4r)-4-methoxycyclohexyl)amino)but-2-enamide]: the binding rate entry in test [1] was “A (A binding rate of 80% or more is rated “A”)”. The IC50 in test [2] was found to be 94 nM; in test [3], 130 nM.
Consider `CO[C@H]1CC[C@H](NC/C=C/C(=O)Nc2c(F)cc(C(=O)c3cc(C(N)=O)c4c(-c5c(C)cc6c(nc(C)n6C)c5Cl)cccn34)cc2F)CC1` [Example 107, 8-(4-chloro-1,2,6-trimethyl-1H-benzo[d]imidazol-5-yl)-3-(3,5-difluoro-4-((E)-4-(((1r,4r)-4-methoxycyclohexyl)amino)but-2-enamido)benzoyl)indolizine-1-carboxamide], for which the binding rate result in test [1] is listed as “A (A binding rate of 80% or more is rated “A”)”. The half-inhibitory concentration (IC50) in test [2] came out at 37.6 nM; in test [3] (Homo sapiens, MIA PaCa-2, 72 h), 569 nM.
On the same counts, the results for `COc1c(-c2cccn3c(C(=O)c4cc(F)c(NC(=O)/C=C/CNC(C)(C)C)c(F)c4)ccc23)c(C(F)(F)F)cc2c1nc(C)n2C` [Example 53, (E)-4-(tert-butylamino)-N-(2,6-difluoro-4-(8-(4-methoxy-1,2-dimethyl-6-(trifluoromethyl)-1H-benzo[d]imidazol-5-yl)indolizine-3-carbonyl)phenyl)but-2-enamide] are “A (A binding rate of 80% or more is rated “A”)”, 40 nM and 22 nM.
On the same counts, the results for `CO[C@H]1C[C@H](NC/C=C/C(=O)Nc2c(F)cc(C(=O)c3ccc4c(-c5cc6nc(C)n(C)c6cc5C(F)(F)F)cccn34)cc2F)C1` [Example 54, (E)-N-(4-(8-(1,2-dimethyl-6-(trifluoromethyl)-1H-benzo[d]imidazol-5-yl)indolizine-3-carbonyl)-2,6-difluorophenyl)-4-(((1r,3r)-3-methoxycyclobutyl)amino)but-2-enamide] are “A (A binding rate of 80% or more is rated “A”)”, 67 nM and 130 nM.
As to `COCCn1c(C)nc2c(F)c(-c3cccn4c(C(=O)c5cc(F)c(NC(=O)/C=C/CNC6(C)CC6)c(F)c5)ccc34)c(OC)cc21` [Example 113, (E)-N-(2,6-difluoro-4-(8-(4-fluoro-6-methoxy-1-(2-methoxyethyl)-2-methyl-1H-benzo[d]imidazol-5-yl)indolizine-3-carbonyl)phenyl)-4-((1-methylcyclopropyl)amino)but-2-enamide], the binding rate result in test [1] was “A (A binding rate of 80% or more is rated “A”)”. For the same compound, the IC50 in test [2] was 44.9 nM; in test [3] (Homo sapiens, MIA PaCa-2, 72 h) it was 55.9 nM.
